{"source": "patent US10179160B2", "about": "“Therapeutic compositions for the treatment of dry eye disease” (SCHEPENS EYE RESEARCH INSTITUTE, priority 2010, dated 2019)", "key": {"[1]": {"test_system": "DED mice", "test": "Real-time PCR of pro-lymphangiogenic growth factors and receptors in DE corneas", "assay_type": "in vivo", "settings": "VEGF-C blockade in DED mice", "from_the_text": "(§1) Eight to ten week-old female C57BLI6 mice (Charles River Laboratory, Wilmington, Mass.) were used in accordance with the standards in the ARVO Statement for the Use of Animals in Ophthalmic and Vision Research. The research protocol was approved by the Schepens Eye Research Institute Animal Care and Use Committee. Dry eye was induced in murine eyes using a Controlled Environment Chamber (CEC) which exposes the mice to high-flow desiccated air. To achieve maximum ocular surface dryness, the conditions in CEC were supplemented with topical application of 1% atropine sulfate (Falcon Pharma, Fort Worth, Tex.) twice for the first 48 hours and subcutaneous injections of 0.1 ml of 5 mg/ml of scopolamine hydrobromide (Sigma-Aldrich, St. Louis, Mo.) three times a day, for the entire duration of the experiment.\nFive mice (10 eyes) were included in each group. Two corneas were pooled together to equal as one sample and stored at −80′C in Trizol (Invitrogen, Carlsbad, Calif.; catalog No. 15596026) until future use. Total RNA was isolated from these corneas using the RNeasy microkit (Qiagen, Valencia, Calif.; catalog No. 74004). Equal amounts of RNA were used to synthesize cDNA using SuperScript™ III Reverse Trancriptase (Invitrogen, Carlsbad, Calif.; catalog No. 18080) according to the manufacturer's recommendations. Real-Time PCR was performed using FAM-MGB dye labeled predesigned primers (Applied Biosystem, Foster City, Calif.) for GAPDH (assay ID.Mm999999 15_g1), VEGF-A (Mm00437304_m1), VEGF-C (Mrn00437313_m1), VEGF-D (Mm00438965_m1), VEGFR-2 (Mm00440099_m1), VEGFR-3 (Mm00433337_m1). 2.5 μl of cDNA was loaded in each well and assays were performed in duplicate. The GAPDH gene was used as the endogenous reference for each reaction. […]\n(§2) Real time PCR was performed to quantify expression of different VEGF growth factors (VEGF-A, VEGF-C, VEGF-D) and their receptors (VEGFR-2, VEGFR-3) in the cornea at days 6, 10 and 14 (FIG. 8) and to determine the levels of proinflammatory cytokines."}, "[2]": {"test_system": "DED mice", "test": "Enumeration of CD11b+ cells in DED corneas (immunohistochemistry)", "assay_type": "in vivo", "from_the_text": "(§3) Eight to ten week-old female C57BLI6 mice (Charles River Laboratory, Wilmington, Mass.) were used in accordance with the standards in the ARVO Statement for the Use of Animals in Ophthalmic and Vision Research. The research protocol was approved by the Schepens Eye Research Institute Animal Care and Use Committee. Dry eye was induced in murine eyes using a Controlled Environment Chamber (CEC) which exposes the mice to high-flow desiccated air. […]\n(§4) Freshly excised corneas were washed in PBS, fixed in acetone for 15 minutes and then double stained with CD31 and LYVE-1 as described previously. To analyze infiltration of CD11b^+/LYVE-1 cells, corneas from three mice from each group were taken and cells were counted in 5-6 areas in the periphery ([…] area from the limbus) of each cornea in a masked fashion, using epifluorescence microscope (model E800; Nikon, Melville, N.Y.) at 40× magnification. The mean number of cells was obtained by averaging the total number of cells in all the areas studied and the result was expressed as the number of positive cells per mm^2.\n(§5) Anti-VEGF-C antibodies (VGX-100; Vegenics Limited, Australia) were administered intraperitonealy daily from day 1 to day 10 to DED mice. Mice were assessed clinically using corneal fluorescent staining. […]"}, "[3]": {"test_system": "DED mice", "test": "Real-time PCR of proinflammatory cytokines in conjunctiva of DED mice", "assay_type": "in vivo", "from_the_text": "as §1\nFive mice (10 eyes) were included in each group. Two corneas were pooled together to equal as one sample and stored at −80′C in Trizol (Invitrogen, Carlsbad, Calif.; catalog No. 15596026) until future use. Total RNA was isolated from these corneas using the RNeasy microkit (Qiagen, Valencia, Calif.; catalog No. 74004). Equal amounts of RNA were used to synthesize cDNA using SuperScript™ III Reverse Trancriptase (Invitrogen, Carlsbad, Calif.; catalog No. 18080) according to the manufacturer's recommendations. Real-Time PCR was performed using FAM-MGB dye labeled predesigned primers (Applied Biosystem, Foster City, Calif.) for GAPDH (assay ID.Mm999999 15_g1), VEGF-A (Mm00437304_m1), VEGF-C (Mrn00437313_m1), VEGF-D (Mm00438965_m1), VEGFR-2 (Mm00440099_m1), VEGFR-3 (Mm00433337_m1). 2.5 μl of cDNA was loaded in each well and assays were performed in duplicate. The GAPDH gene was used as the endogenous reference for each reaction. The results were normalized by the cycle threshold (CT) of GAPDH and the relative mRNA level in the normal mice was used as the normalized control.\n(§6) Anti-VEGF-C antibodies (VGX-100; Vegenics Limited, Australia) were administered intraperitonealy daily from day 1 to day 10 to DED mice. Mice were assessed clinically using corneal fluorescent staining. Tissues from cornea, conjunctiva and draining lymph nodes were examined for cellular and molecular pathological changes.\nas §2"}, "[4]": {"test_system": "DED mice", "test": "Real-time PCR of IL-17 and IFN-γ in draining lymph nodes of DED mice", "assay_type": "in vivo", "settings": "anti-VEGF-C treated vs untreated DED mice", "from_the_text": "as §1\nFive mice (10 eyes) were included in each group. […]\nas §5, §2"}, "[5]": {"test_system": "DED mice", "test": "Corneal lymphangiogenesis (lymphatic growth) in DED mice", "settings": "in vivo blockade of VEGF-C in DED mice", "from_the_text": "as §3, §4\nMorphology of lymphatics was analyzed using an automated image analysis program written with Matlab (The Mathworks, Inc., Natick, Mass.). […] The resultant isolated lymphatic vessels were analyzed morphologically using two metrices, Lymphatic Area (LA) and Lymphatic Caliber (LC). […]"}, "[6]": {"test_system": "DED mice", "test": "Corneal fluorescein staining / clinical signs in experimental dry eye murine model", "assay_type": "in vivo", "settings": "for clinical signs of DED / disease severity: anti-VEGF-C-treated vs untreated DED mice", "from_the_text": "as §1, §6\nCorneal lymphatics play an important role in mediating the corneal inflammation in dry eyes. Experiments: To validate this, inhibition of corneal neolymphangiogenesis was performed in a well characterized mouse model of DED described above. To see if inhibition of corneal neolymphangiogenesis could decrease ocular surface inflammation, anti-VEGF-C antibodies were administered i.p. daily from day −1 to day 10 to DED mice and assessed clinically using corneal fluorescein staining.\nMethods (as described previously): Induction of Dry Eye Disease. Experimental Dry Eye Murine Model. Assessment of Corneal Surface: Corneal Fluorescein Staining. Immunohistochemistry: Monocyte/macrophage marker—CD11b; Pan-endothelial marker—CD31; Lymphatic endothelial marker—LYVE-1; Blood vessels: CD31^hi/LYVE-1; Lymph vessels: CD31^lo/LYVE-1^hi. Morphometry of Lymphangiogenesis: Automated image analysis program written using Mat lab. Lymphatic Area (LA)—total surface area of the lymphatic vessels when projected into the plane of the image. Lymphatic Caliber (LC)—measure of the diameters of the lymphatic vessels.\nAnti-VEGF-C antibody and treatment regimen. Experimental design: Three groups: Normal, DE group treated with IP normal Saline (Untreated) and DE group treated with anti-VEGF-C antibody (VGX-100; a gift from Vegenics, Australia). Daily IP application of anti-VEGF-C antibody/Normal saline from day −1 to day 13. Dose: […] (20 mg/kg) in […] of Normal Saline."}, "[7]": {"settings": "real-time PCR, anti-VEGF-C treated vs untreated DED mice"}}}
{"substance": "VGX-100: human anti-VEGF-C monoclonal antibody produced by hybridoma ATCC PTA-4095, heavy/light chains SEQ ID NO: 48/49; from Vegenics", "values": [{"measurement": "expression of VEGF-C in DE corneas", "setting": "[1]", "value": "decrease"}, {"measurement": "expression of VEGF-D in DE corneas", "setting": "[1]", "value": "decrease"}, {"measurement": "expression of VEGFR-3 (R3) in DE corneas", "setting": "[1]", "value": "decrease"}, {"measurement": "corneal infiltration of CD11b+ cells", "setting": "[2]; VEGF-C blockade in DED mice", "value": "decrease"}, {"measurement": "decrease of infiltration of CD11b+ cells in the DED corneas", "setting": "[2]; day 14", "value": 30, "unit": "%"}, {"measurement": "mRNA expression levels of proinflammatory cytokines in the conjunctiva", "setting": "[3]; VEGF-C blockade in DED mice", "value": "decrease"}, {"measurement": "IL-1α expression in conjunctiva", "setting": "[3]; [7]", "value": "significantly decreased expression"}, {"measurement": "IL-1β expression in conjunctiva", "setting": "[3]; [7]", "value": "significantly decreased expression"}, {"measurement": "IL-6 expression in conjunctiva", "setting": "[3]; [7]", "value": "significantly decreased expression"}, {"measurement": "IL-17 expression in conjunctiva", "setting": "[3]; [7]", "value": "significantly decreased expression"}, {"measurement": "IFN-γ (Th1 cells) in draining lymph nodes, induction of T-cell mediated autoimmune response", "setting": "[4]", "value": "significantly decreased induction"}, {"measurement": "IL-17 (Th17 cells) in draining lymph nodes, induction of T-cell mediated autoimmune response", "setting": "[4]", "value": "significantly decreased induction"}, {"measurement": "corneal lymphangiogenesis / lymphatic growth", "setting": "[5]", "value": "suppresses"}, {"measurement": "corneal lymphangiogenesis / lymphatic growth", "setting": "[5]; listed as anti-VEGF-C", "value": "suppression"}, {"measurement": "corneal epitheliopathy", "setting": "[6]; VEGF-C blockade in DED mice", "value": "decrease"}, {"measurement": "Corneal fluorescein staining (CFS) score", "setting": "[6]; anti-VEGF-C Ab-treated vs untreated DED mice, days 5, 9 and 13, daily IP, 20 mg/kg", "value": "significantly decreased"}, {"measurement": "clinical signs of DED / disease severity", "setting": "[6]; daily IP", "value": "ameliorates"}, {"measurement": "clinical signs of DED / disease severity", "setting": "[6]; daily IP, listed as anti-VEGF-C", "value": "significant decrease"}]}
